Literature values, collected in US8636985B2, “Functional formulation in chewing gum” (priority 2010, dated 2014).

Conditions: several experimental models

## CC1=C(CO)C(=O)O[C@@H]([C@@H](C)[C@H]2CC[C@H]3[C@@H]4C[C@H]5O[C@]56[C@@H](O)C=CC(=O)[C@]6(C)[C@H]4CC[C@]23C)C1 [Withaferin A]
  anti-inflammatory and antiarthritic properties: anti-inflammatory and antiarthritic properties
